The nature of series [1]: Rapamycin stability in solution. The settings on record: known concentration solutions at 37° C. for 24 hours. The series is classed as physicochemical. As for the experimental part: Rapamycin stability was evaluated by sampling known concentration solutions at 37° C. for 24 hours.
The subject of the next series is Oral Lichen Planus. The conditions noted are these: cited from earlier work.

Here are results for one molecule from patent US10485792B2, “Sustained release delivery systems for the prevention and treatment of head and neck cancers” (HADASIT MEDICAL RESEARCH SERVICES & DEVELOPMENT LIMITED, priority 2009, dated 2019).

SMILES strings stand for the structures.

For `CO[C@H]1C[C@@H]2CC[C@@H](C)[C@@](O)(O2)C(=O)C(=O)N2CCCC[C@H]2C(=O)O[C@H]([C@H](C)C[C@@H]2CC[C@@H](O)[C@H](OC)C2)CC(=O)[C@H](C)/C=C(\C)[C@@H](O)[C@@H](OC)C(=O)[C@H](C)C[C@H](C)/C=C/C=C/C=C/1C` [Rapamycin], the Rapamycin stability result in series [1] is on record as “No stability problems were observed”. The “Local side effect after first application” value in the series with Oral Lichen Planus (direct topical application to the diseased regions) is “tingling or burning sensations were encountered”. In the series on Oral Lichen Planus (direct topical application), the Blood levels entry was “negligible” and the Systemic adverse effects entry is recorded as “no systemic adverse effects were encountered”.
